Data as given in paper PMC3466204 (PLoS ONE, 2012).
Several values for one entry are separate records, joined by “and”; a condition that tells them apart may be missing. Equal entries are not always repeated. Ends that are not written are not given here.

Columns and labels:
Lactococcus lactis HP = test: Agarose-based assay of cell-free supernatants of S29X producing strains; conditions: for Zone Diameter (mm): agarose (1%) GM17 assay, 10 µl cell-free supernatant of overnight producing culture in 4.6 mm wells, L. lactis HP, 30°C; for % difference (zone relative to wild type): agarose assay of supernatants against L. lactis HP, wild type serine = 100
Protocol: (§1) Agarose-based deferred antagonism assays were carried out as follows: GM17/LB (0.03%) underlay was prepared with 10 mM sodium phosphate buffer (SPB) at pH 7.4 to which was added agarose (1% w/v agarose), autoclaved and cooled to 50°C. Bacteria grown to mid-logarithmic phase were harvested by centrifugation and washed with 10 mM SPB at pH 7.4. Bacteria were then added to 15 mls cooled underlay medium to reach a concentration of 2×10^7 colony-forming units (CFU)/mL. The inoculated medium was rapidly transferred into sterile Petri plates, allowed to solidify and dried. Wells (4.6 mm in diameter) were then made in the seeded plates. 10 µl volumes of cell-free supernatant from overnight nisin derivative producing cultures or resuspended purified peptides were then added to the wells and the plates incubated at 30°C (L. lactis) or 37°C (Gram positive strains) or RT (Gram negative strains) for 3 hours. Polymyxin B (Sigma Aldrich) was used at a concentration of 20 µg/ml. The plates were then overlaid with 15 mls of autoclaved double strength GM17 (L. lactis) or LB (Gram negatives) agarose (1% w/v agarose) overlay medium precooled to 50°C. The plates were then incubated overnight at the relevant temperature.

L. lactis HP = test: Broth MIC, Gram positive; type: cell-based; conditions: broth microtitre, BSA pre-treated plates, 10^5 cfu ml^−1, 2-fold dilutions from 500 nM, 16 h, purified peptide, mean of triplicate assays
Protocol: (§2) Minimum inhibitory concentration determinations for Gram positive organisms were carried out in triplicate in microtitre plates (Sarstedt). 96 well microtitre plates were pre-treated with bovine serum albumin (BSA) prior to addition of the peptides. Briefly, to each well of the microtitre plate 200 µL of phosphate buffered saline (PBS) containing 1% (w/v) bovine serum albumin (PBS/BSA) was added and incubated at 37°C for 30 min. The wells were washed with 200 µL PBS and allowed to dry. Target strains were grown overnight in the appropriate conditions and medium, subcultured into fresh broth and allowed to grow to an OD600 of ∼0.5, diluted to a final concentration of 10^5 cfu ml^−1 in a volume of 0.2 ml. Wild type nisin and nisin mutant peptides were adjusted to a 10 µM (S. mitis, B. cereus), 7.5 µM (L. monocytogenes), 5 µM (hVISA) 2.5 µM (MRSA, E. durans), or 500 nM (L. lactis strains) starting concentration and 2-fold serial dilutions of each peptide were added to the target strain.

L. lactis MG1363 [1] = test: Broth MIC, Gram positive; type: cell-based; conditions: broth microtitre, BSA pre-treated plates, 10^5 cfu ml^−1, 2-fold dilutions from 500 nM, 16 h, purified peptide, mean of triplicate assays
Protocol: as §2

L. monocytogenes 10403S = test: Broth MIC, Gram positive; type: cell-based; conditions: broth microtitre, BSA pre-treated plates, 10^5 cfu ml^−1, 2-fold dilutions from 7.5 µM, 16 h 37°C, purified peptide, mean of triplicate assays
Protocol: as §2

L. monocytogenes LO28 = test: Broth MIC, Gram positive; type: cell-based; conditions: broth microtitre, BSA pre-treated plates, 10^5 cfu ml^−1, 2-fold dilutions from 7.5 µM, 16 h 37°C, purified peptide, mean of triplicate assays
Protocol: as §2

S. aureus RF122 = test: Broth MIC, Gram positive; type: cell-based; conditions: broth microtitre, BSA pre-treated plates, 10^5 cfu ml^−1, 2-fold dilutions, 16 h 37°C, purified peptide, mean of triplicate assays
Protocol: as §2

[2] = system: ST 528 (Methicillin resistant S. aureus); test: Broth MIC, Gram positive; type: cell-based; conditions: broth microtitre, BSA pre-treated plates, 10^5 cfu ml^−1, 2-fold dilutions from 2.5 µM, 16 h 37°C, purified peptide, mean of triplicate assays
Protocol: as §2

[3] = system: ST 530 (Methicillin resistant S. aureus); test: Broth MIC, Gram positive; type: cell-based; conditions: broth microtitre, BSA pre-treated plates, 10^5 cfu ml^−1, 2-fold dilutions from 2.5 µM, 16 h 37°C, purified peptide, mean of triplicate assays
Protocol: as §2

[4] = system: hVISA 32679 (heterogenous Vancomycin-intermediate S. aureus); test: Broth MIC, Gram positive; type: cell-based; conditions: broth microtitre, BSA pre-treated plates, 10^5 cfu ml^−1, 2-fold dilutions from 5 µM, 16 h 37°C, purified peptide, mean of triplicate assays
Protocol: as §2

S. mitis UCC5000 = test: Broth MIC, Gram positive; type: cell-based, Streptococcus mitis; conditions: broth microtitre, BSA pre-treated plates, 10^5 cfu ml^−1, 2-fold dilutions from 10 µM, 16 h 37°C, purified peptide, mean of triplicate assays
Protocol: as §2

B. cereus DPC 6088 = test: Broth MIC, Gram positive; type: cell-based, Bacillus cereus; conditions: broth microtitre, BSA pre-treated plates, 10^5 cfu ml^−1, 2-fold dilutions from 10 µM, 16 h 37°C, purified peptide, mean of triplicate assays
Protocol: as §2

B. cereus DPC 6089 = test: Broth MIC, Gram positive; type: cell-based, Bacillus cereus; conditions: broth microtitre, BSA pre-treated plates, 10^5 cfu ml^−1, 2-fold dilutions from 10 µM, 16 h 37°C, purified peptide, mean of triplicate assays
Protocol: as §2

E. durans 5133 = test: Broth MIC, Gram positive; type: cell-based, Enterococcus durans; conditions: broth microtitre, BSA pre-treated plates, 10^5 cfu ml^−1, 2-fold dilutions from 2.5 µM, 16 h 37°C, purified peptide, mean of triplicate assays
Protocol: as §2

C. sakazakii DPC 6440 [5] = test: Agarose gel diffusion assay, purified peptide; type: cell-based, Cronobacter sakazakii; conditions: purified peptide 60 µM; for Zone of inhibition, agarose gel diffusion: C. sakazakii DPC 6440, mean of triplicate assays
Protocol: as §1

E. coli 0157-H7 [6] = test: Agarose gel diffusion assay, purified peptide; type: cell-based; conditions: purified peptide 60 µM; for Zone of inhibition, agarose gel diffusion: E. coli 0157-H7, mean of triplicate assays
Protocol: as §1

[7] = system: Salmonella enterica serovar Typhimurium UK1; test: Agarose gel diffusion assay, purified peptide; type: cell-based; conditions: purified peptide 60 µM; for Zone of inhibition, agarose gel diffusion: Salmonella Typhimurium UK1, mean of triplicate assays
Protocol: as §1

C. sakazakii DPC 6440 [8] = test: Broth MIC, Gram negative; type: cell-based, Cronobacter sakazakii; conditions: cells washed in 10 mM SPB pH 7.4, 2×10^5 CFU/mL, 2 h RT with peptide, then double strength LB, RT overnight, mean of triplicate assays
Protocol: (§3) Minimum inhibitory concentration determinations for Gram negative strains were carried out in triplicate in 96 well microtitre plates. Briefly, bacteria (E. coli, C. sakazakii and Salmonella) grown to mid-logarithmic phase were harvested by centrifugation, washed with 10 mM SPB at pH 7.4, and diluted to 2×10^5 colony-forming units (CFU)/mL in SPB. Nisin and nisin derivative peptides were resuspended in sterile HPLC water and 50 µL aliquots were added to wells containing 50 µL of 2×10^5 CFU of bacteria. Plates were incubated at RT for two hours with agitation. Double strength Luria–Bertani (LB) broth (100 µL) was added and the plates were incubated at RT overnight, the MIC was taken as the lowest concentration at which growth was inhibited.

E. coli 0157-H7 [9] = test: Broth MIC, Gram negative; type: cell-based; conditions: cells washed in 10 mM SPB pH 7.4, 2×10^5 CFU/mL, 2 h RT with peptide, then double strength LB, RT overnight, mean of triplicate assays
Protocol: as §3

[10] = system: Salmonella enterica serovar Typhimurium UK1; test: Broth MIC, Gram negative; type: cell-based; conditions: cells washed in 10 mM SPB pH 7.4, 2×10^5 CFU/mL, 2 h RT with peptide, then double strength LB, RT overnight, mean of triplicate assays
Protocol: as §3

C. sakazakii DPC 6440 [11] = test: Agarose gel diffusion assay, peptide alone or with polymyxin B nonapeptide (PMBN); type: cell-based, Cronobacter sakazakii; conditions: for Total area of inhibitory zone, peptide alone: purified peptide 30 µM alone; for Total area of inhibitory zone, peptide + PMBN: purified peptide 30 µM in combination with polymyxin B nonapeptide (PMBN) 20 µg/ml
Protocol: as §1
Polymyxin B (PMB) is a cyclic lipodecapaptide produced by bacteria of the genus Paenibacillus that acts primarily on the Gram negative cell wall, leading to rapid permeability changes in the cytoplasmic membrane and ultimately cell death. […] To that end, C. sakazakii DPC 6440 cells were treated with purified nisin A, S29G and S29A peptides alone (30 µM) or in combination with PMBN at a concentration of 20 µg/ml and determined the antimicrobial activity by agarose gel diffusion assay (Fig. 5). […] When used in combination with PMBN, a substantial synergistic effect was clearly evident (Fig. 5) but in this instance no significant difference in efficacy was observed between nisin A or either of the derivatives S29A or S29G.

C. sakazakii DPC 6440 [12] = test: Kill curve analysis; type: cell-based, Cronobacter sakazakii; conditions: 33 mg/L purified peptide, 2×10^5 cfu ml^−1, 37°C for 1 hour
Protocol: (§4) Using purified peptide in each case, 10 mM sodium phosphate buffer washed C. sakazakii, E. coli and Salmonella strains were diluted to a final concentration of 2×10^5 cfu ml^−1 and were exposed to nisin A, S29G and S29A at a concentration of 33 mg/L. Following incubation at 37°C for 1 hour, bacterial growth was monitored through plate counts.

E. coli = test: Kill curve analysis; type: cell-based; conditions: 33 mg/L purified peptide, 2×10^5 cfu ml^−1, 37°C for 1 hour
Protocol: as §4

S. typhimurium UK-1 = test: Kill curve analysis; type: cell-based, Salmonella enterica serovar Typhimurium; conditions: 33 mg/L purified peptide, 2×10^5 cfu ml^−1, 37°C for 1 hour
Protocol: as §4

L. lactis MG1363 [13] = conditions: truncated nisin, ref [36]; cited from earlier work
Description: The increased efficacy resulted from a single mutation located at serine 29, within the C-terminal of nisin. The importance of Serine 29 for activity has previously been noted when Chan et al report ...

Substance | Zone Diameter (mm) (Lactococcus lactis HP) | % difference (zone relative to wild type) (Lactococcus lactis HP) | MIC (L. lactis HP) | MIC (L. lactis MG1363 [1]) | MIC (L. monocytogenes 10403S) | MIC (L. monocytogenes LO28) | MIC (S. aureus RF122) | MIC [2] | MIC [3] | MIC [4] | MIC (S. mitis UCC5000) | MIC (B. cereus DPC 6088) | MIC (B. cereus DPC 6089) | MIC (E. durans 5133) | Zone of inhibition, agarose gel diffusion (C. sakazakii DPC 6440 [5]) | Zone of inhibition, agarose gel diffusion (E. coli 0157-H7 [6]) | Zone of inhibition, agarose gel diffusion [7] | MIC (C. sakazakii DPC 6440 [8]) | MIC (E. coli 0157-H7 [9]) | MIC [10] | also measured
S29A: bioengineered nisin A derivative, serine 29 replaced by alanine (ITSISLCTPGCKTGALMGCNMKTATCHCAIHVSK; not fully specified (residues 2, 5, 33, bridges); cysteine pairing not given here; UniProt P13068 24-57, looked up, variant S29A) | 16.6±0.3 mm | 109 (0.004) % | 0.1 mg/L and 0.031 µM | 0.2 mg/L and 0.062 µM | 6.28 mg/L and 1.875 µM | 3.14 mg/L and 0.937 µM | 0.52 mg/L and 0.156 µM | 0.26 mg/L and 0.078 µM | 0.26 mg/L and 0.078 µM | 2 mg/L and 0.625 µM | 4.19 mg/L | 2 mg/L | 4.19 mg/L and 1.25 µM | 0.13 mg/L and 0.039 µM | 11.65±0.12 mm | 11.50±0.05 mm | 11.29±0.23 mm | 6.28 mg/L and 1.875 µM | 25.14 mg/L and 7.5 µM | 50.28 mg/L and 15 µM | Zone as % wt (C. sakazakii DPC 6440 [5]; C. sakazakii DPC 6440, relative to nisin A): 119 % wt; Zone as % wt (E. coli 0157-H7 [6]; E. coli 0157-H7, relative to nisin A): 117 % wt; Zone as % wt ([7]; Salmonella Typhimurium UK1, relative to nisin A): 114 % wt; Total area of inhibitory zone, peptide alone (C. sakazakii DPC 6440 [11]): 49.0±1.24 mm^2; Total area of inhibitory zone, peptide + PMBN (C. sakazakii DPC 6440 [11]): 121.5±6.3 mm^2; Killing compared with nisin A (plate counts) (C. sakazakii DPC 6440 [12]): greater activity than wildtype nisin A; Killing compared with nisin A (plate counts) (E. coli): greater activity than wildtype nisin A; Killing compared with nisin A (plate counts) (S. typhimurium UK-1): greater activity than wildtype nisin A
nisin 1–28: truncated version of nisin, literature (ITSISLCTPGCKTGALMGCNMKTATCHC; ends and bridges not checked; cysteine pairing not given here; UniProt P13068 24-51, looked up, fragment) |  |  |  |  |  |  |  |  |  |  |  |  |  |  |  |  |  |  |  |  | fold reduced inhibitory activity relative to nisin (L. lactis MG1363 [13]): 100 fold
nisin A (ITSISLCTPGCKTGALMGCNMKTATCHCSIHVSK; thioether (positions not given here); not fully specified (residues 2, 5, 33, bridges); also: lantibiotic, ring and dehydro modifications not given here; UniProt P13068 24-57, looked up) [wild type lantibiotic bacteriocin purified from L. lactis NZ9700; serine at position 29, reference compound] | 15.2±0.2 mm | 100% | 0.2 mg/L and 0.062 µM | 0.8 mg/L and 0.250 µM | 12.57 mg/L and 3.75 µM | 6.28 mg/L and 1.875 µM | 1.04 mg/L | 0.52 mg/L and 0.156 µM | 0.52 mg/L and 0.156 µM | 4.19 mg/L | 8.38 mg/L and 2.5 µM | 8.38 mg/L and 2.5 µM | 8.38 mg/L and 2.5 µM | 0.52 mg/L and 0.156 µM | 9.77±0.17 mm | 9.81±0.04 mm | 9.88±0.11 mm | 12.57 mg/L and 3.75 µM | 50.28 mg/L and 15 µM | > 100 mg/L and > 30 µM | MIC (S. aureus RF122; listed as NisinA): 0.312 µM; MIC ([4]; listed as NisinA): 1.25 µM; Total area of inhibitory zone, peptide alone (C. sakazakii DPC 6440 [11]): 40.0±2.3 mm^2; Total area of inhibitory zone, peptide + PMBN (C. sakazakii DPC 6440 [11]): 115.61±2.9 mm^2
